Source: patent US9150545B2, “Carboxamide compounds and their use as calpain inhibitors V” (ABBVIE DEUTSCHLAND GMBH & CO. KG, priority 2012, dated 2015)
Counter-ions that a name gives are not always drawn.

Target: T1, calpain-I isolated from human erythrocytes (Homo sapiens, UniProt P07384)
T1 construct: calpain-I—isolated from human erythrocytes (Calbiochem #208713); purchased Calbiochem 208713; host or cells: human erythrocytes (native tissue isolate)
T1 sequence (P07384 1-714): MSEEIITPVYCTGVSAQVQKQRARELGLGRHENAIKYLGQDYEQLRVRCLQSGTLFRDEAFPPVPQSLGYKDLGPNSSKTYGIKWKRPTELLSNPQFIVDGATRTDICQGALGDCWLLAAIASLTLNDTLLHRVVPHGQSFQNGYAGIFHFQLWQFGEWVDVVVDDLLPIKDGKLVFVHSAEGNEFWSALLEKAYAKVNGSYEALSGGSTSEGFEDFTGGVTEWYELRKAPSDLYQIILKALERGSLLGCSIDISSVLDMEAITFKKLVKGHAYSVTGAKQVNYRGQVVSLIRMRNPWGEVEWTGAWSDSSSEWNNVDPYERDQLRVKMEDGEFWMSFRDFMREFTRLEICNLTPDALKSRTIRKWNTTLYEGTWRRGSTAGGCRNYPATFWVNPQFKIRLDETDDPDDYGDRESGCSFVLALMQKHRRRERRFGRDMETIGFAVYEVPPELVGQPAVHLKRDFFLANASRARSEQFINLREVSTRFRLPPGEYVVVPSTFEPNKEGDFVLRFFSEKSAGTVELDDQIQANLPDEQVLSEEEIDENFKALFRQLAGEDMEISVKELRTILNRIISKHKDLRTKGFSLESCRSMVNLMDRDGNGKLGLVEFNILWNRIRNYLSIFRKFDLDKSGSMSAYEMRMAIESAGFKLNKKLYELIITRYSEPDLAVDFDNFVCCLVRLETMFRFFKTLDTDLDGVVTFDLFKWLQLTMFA
T1 sequence (P04632 1-268 partner): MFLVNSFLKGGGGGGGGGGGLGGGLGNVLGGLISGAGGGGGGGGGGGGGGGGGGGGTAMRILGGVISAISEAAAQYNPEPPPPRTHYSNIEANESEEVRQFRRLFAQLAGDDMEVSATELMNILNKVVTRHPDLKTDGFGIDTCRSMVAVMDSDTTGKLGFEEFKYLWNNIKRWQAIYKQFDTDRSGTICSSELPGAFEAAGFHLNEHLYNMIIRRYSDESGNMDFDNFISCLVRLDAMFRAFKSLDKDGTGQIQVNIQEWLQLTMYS
Experiment: Calpain I kinetic fluorescence enzyme inhibition assay
Assay type: biochemical
Conditions: apparent Ki from IC50 by Cheng-Prussoff
Protocol: Testing for blockade of the corresponding enzymic activities was carried out by means of kinetic fluorescence assays (excitation 390 nm, emission 460 nm).
Apparent Ki values were calculated from the experimentally determined IC50 values by the Cheng-Prussoff relation assuming a reversible competitive enzyme inhibition.
20 nM calpain-I—isolated from human erythrocytes (Calbiochem #208713), 100 μM Suc-Leu-Tyr-AMC (Bachem #I-1355) as substrate in buffer with 62 mM imidazole, 0.3 mM CaCl2, 0.10% CHAPS, 0.05% BSA, 1 mM DTT at pH 7.3 and room temperature.

Ki [nM]	SMILES
< 250	CC1CN(Cc2ccn(-c3ncccc3C(=O)NC(Cc3ccccc3)C(=O)C(N)=O)n2)CC(C)O1 (single isomer, unassigned) [Example 2a, N-(4-Amino-3,4-dioxo-1-phenylbutan-2-yl)-2-(3-((2,6-dimethylmorpholino)-methyl)-1H-pyrazol-1-yl)nicotinamide]
< 250	CC1CN(Cc2ccn(-c3ncccc3C(=O)NC(Cc3ccccc3)C(=O)C(N)=O)n2)CC(C)O1 (single isomer, unassigned) [Example 2b, N-(4-Amino-3,4-dioxo-1-phenylbutan-2-yl)-2-(3-((2,6-dimethylmorpholino)-methyl)-1H-pyrazol-1-yl)nicotinamide]
< 250	NC(=O)C(=O)C(Cc1ccccc1)NC(=O)c1cccnc1-n1ccc(CN2CCOC3CCCCC32)n1 (single isomer, unassigned) [Example 8a, 2-(3-((2H-Benzo[b][1,4]oxazin-4(3H,4aH,5H,6H,7H,8H,8aH)-yl)methyl)-1H-pyrazol-1-yl)-N-(4-amino-3,4-dioxo-1-phenylbutan-2-yl)nicotinamide trifluoroacetate]
< 250	NC(=O)C(=O)C(Cc1ccccc1)NC(=O)c1cccnc1-n1ccc(CN2CCOC3CCCCC32)n1 (single isomer, unassigned) [Example 8b, 2-(3-((2H-Benzo[b][1,4]oxazin-4(3H,4aH,5H,6H,7H,8H,8aH)-yl)methyl)-1H-pyrazol-1-yl)-N-(4-amino-3,4-dioxo-1-phenylbutan-2-yl)nicotinamide trifluoroacetate]

More lines, now with the values behind:

SMILES	Ki [nM]
NC(=O)C(=O)C(Cc1ccccc1)NC(=O)c1cccnc1-n1ccc(CN2CCOCC2)n1 (stereo not drawn) [Example 1, N-(4-Amino-3,4-dioxo-1-phenylbutan-2-yl)-2-(3-(morpholinomethyl)-1H-pyrazol-1-yl)nicotinamide]	< 250
NC(=O)C(=O)C(Cc1ccccc1)NC(=O)c1cccnc1-n1ccc(CN2CCC(F)(F)CC2)n1 (stereo not drawn) [Example 3, N-(4-Amino-3,4-dioxo-1-phenylbutan-2-yl)-2-(3-((4,4-difluoropiperidin-1-yl)methyl)-1H-pyrazol-1-yl)nicotinamide trifluoroacetate]	< 250
NC(=O)C(=O)C(Cc1ccccc1)NC(=O)c1cccnc1-n1cc2c(n1)CCN(Cc1ccccc1)C2 (stereo not drawn) [Example 4, N-(4-Amino-3,4-dioxo-1-phenylbutan-2-yl)-2-(5-benzyl-4,5,6,7-tetrahydro-2H-pyrazolo[4,3-c]pyridin-2-yl)nicotinamide]	< 250
NC(=O)C(=O)C(Cc1ccccc1)NC(=O)c1cccnc1-n1ccc(CN2CCC(c3ccccc3)CC2)n1 (stereo not drawn) [Example 5, N-(4-Amino-3,4-dioxo-1-phenylbutan-2-yl)-2-(3-((4-phenylpiperidin-1-yl)methyl)-1H-pyrazol-1-yl)nicotinamide]	< 250
NC(=O)C(=O)C(Cc1ccccc1)NC(=O)c1cccnc1-n1ccc(CN2CCOc3ccccc32)n1 (stereo not drawn) [Example 6, 2-(3-((2H-Benzo[b][1,4]oxazin-4(3H)-yl)methyl)-1H-pyrazol-1-yl)-N-(4-amino-3,4-dioxo-1-phenylbutan-2-yl)nicotinamide]	< 250
NC(=O)C(=O)C(Cc1ccccc1)NC(=O)c1cccnc1-n1ccc(CN2CCCCC2)n1 (stereo not drawn) [Example 7, N-(4-Amino-3,4-dioxo-1-phenylbutan-2-yl)-2-(3-(piperidin-1-ylmethyl)-1H-pyrazol-1-yl)nicotinamide hydrochloride]	< 250
NC(=O)C(=O)C(Cc1ccccc1)NC(=O)c1cccnc1-n1ccc(CN2CCOC(c3ccccc3)C2)n1 (stereo not drawn) [Example 9, N-(4-Amino-3,4-dioxo-1-phenylbutan-2-yl)-2-(3-((2-phenylmorpholino)methyl)-1H-pyrazol-1-yl)nicotinamide trifluoroacetate]	< 250
NC(=O)C(=O)C(Cc1ccccc1)NC(=O)c1cccnc1-n1ccc(CN2CCCC2)n1 (stereo not drawn) [Example 10, N-(4-Amino-3,4-dioxo-1-phenylbutan-2-yl)-2-(3-(pyrrolidin-1-ylmethyl)-1H-pyrazol-1-yl)nicotinamide trifluoroacetate]	250 to 400
